Paper PMC10892419, “UHPLC-MS/MS Assay for Quantification of Legubicin, a Novel Doxorubicin-Based Legumain-Activated Prodrug, and Its Application to Pharmacokinetic and Tissue Distribution Studies” (Molecules, 2024)

How the values were obtained:
[1] = Storage stability of analytes in mouse liver homogenate (method validation)
Experimental: Tumor-bearing mouse tumor/individual tissue samples were homogenized by adding PBS at a ratio of 1:5 (e.g., 1 g of tumor sample to 5 mL of PBS) to make a tumor/tissue homogenate. A quantity of 60 µL of homogenate was taken as a tumor/tissue sample and processed in the same manner as the mouse plasma sample, with the exception of 240 µL of IS working solution used for protein precipitation.
(§5) By investigating low- and high-concentration stability QCs in six replicates at different storage conditions, autosampler, short-term (bench-top), freeze and thaw, and long-term stability evaluations were conducted.

[2] = Storage stability of analytes in rat plasma (method validation); conditions: for Auto-Sampler Stability at 2–8 °C (72 h), Bias / Auto-Sampler Stability at 2–8 °C (72 h), Measured Concentration: processed rat plasma; for Auto-Sampler Stability at 2–8 °C (72 h), Bias / Short-Term Stability at Room Temperature (4 h), Bias / Freeze and Thaw Stability at −80 °C/Room Temperature (3 Cycles), Bias / Long-Term Stability at −80 °C (70 days), Bias: n = 6; for Auto-Sampler Stability at 2–8 °C (72 h), Measured Concentration / Freeze and Thaw Stability at −80 °C/Room Temperature (3 Cycles), Measured Concentration / Long-Term Stability at −80 °C (70 days), Measured Concentration / Short-Term Stability at Room Temperature (4 h), Measured Concentration: n = 6, mean ± SD; for Short-Term Stability at Room Temperature (4 h), Bias / Freeze and Thaw Stability at −80 °C/Room Temperature (3 Cycles), Bias / Long-Term Stability at −80 °C (70 days), Bias / Freeze and Thaw Stability at −80 °C/Room Temperature (3 Cycles), Measured Concentration / Long-Term Stability at −80 °C (70 days), Measured Concentration / Short-Term Stability at Room Temperature (4 h), Measured Concentration: rat plasma; for Short-Term Stability at Room Temperature (4 h), Bias: bias from nominal
Experimental: as §5

[3] = Tissue-distribution study after i.v. legubicin or doxorubicin; conditions: HT1080 tumor-bearing mice
Experimental: (§1) The mixture was vortexed for 3 min, and then centrifuged at 22,000× g at 4 °C for 10 min. A final analysis was conducted by injecting 5 µL supernatant into a UHPLC-MS/MS system. Mouse plasma samples were treated in the same way as the rat plasma samples, except for protein precipitation, with 200 µL of 5 pmol/mL IS working solution and injection of 2 µL of supernatant for analysis.
Each legubicin administration group corresponded to a sampling time-point (4, 16, 32, 48, 96, 168, and 240 h after administration). […] Blood samples and tumor, heart, and kidney tissues were collected at the sampling time points (4, 16, 32, 48, 96, 168, and 240 h after dosing). In addition, liver, spleen, lung, stomach, small intestine, gonads, brain, skeletal muscle, and skin were also collected at 4, 32, 96, and 240 h post-dose time points in the legubicin administration group. All whole-blood samples were processed according to the same processing steps, described above, for rat whole-blood samples.
(§2) The analysis software (Version 1.5.2, AB Sciex, Vaughan, ON, Canada) was applied to data acquisition and quantification. Pharmacokinetic parameters were calculated with WinNonlin Phoenix (v6.4, Pharsight, Mountain View, CA, USA) with the noncompartmental method, and were presented as mean ± SD (%CV). The “Best fit” strategy in the WinNonlin Phoenix was used for the calculation of elimination half-life and the selection of the elimination phase. Graphs were plotted by GraphPad Software (GraphPad Prism 8.0.2; GraphPad Software, Inc., La Jolla, CA, USA).

[4] = Storage stability of analytes in mouse plasma (method validation); conditions: for Freeze and thaw stability at -80 °C/ room temperature, Bias / Freeze and thaw stability at -80 °C/ room temperature, Measured concentration / Long term stability at -80 °C (30 days), Bias / Short term stability at room temperature (6 h), Bias / Long term stability at -80 °C (30 days), Measured concentration / Short term stability at room temperature (6 h), Measured concentration: mouse plasma; for Freeze and thaw stability at -80 °C/ room temperature, Bias / Freeze and thaw stability at -80 °C/ room temperature, Measured concentration: 1 cycle; for Freeze and thaw stability at -80 °C/ room temperature, Bias / Long term stability at -80 °C (30 days), Bias / Short term stability at room temperature (6 h), Bias / Auto-sampler stability at 2-8 °C, Bias: n = 6; for Freeze and thaw stability at -80 °C/ room temperature, Measured concentration / Long term stability at -80 °C (30 days), Measured concentration / Short term stability at room temperature (6 h), Measured concentration / Auto-sampler stability at 2-8 °C, Measured concentration: n = 6, mean ± SD; for Auto-sampler stability at 2-8 °C, Bias / Auto-sampler stability at 2-8 °C, Measured concentration: processed mouse plasma, 12 h
Experimental: as §5

[5] = Single-dose pharmacokinetic study of legubicin, i.v.; conditions: free metabolite in plasma; for AUClast / Cmax: n = 3, mean ± SD; for Tmax: n = 3, median [min, max]
Experimental: The pharmacokinetic parameters are outlined in Table 5. […] A power-function model was used to fit the relationship between exposure level (Cmax, AUClast, and AUCINF_obs) parameters and dose, and the power exponent (parameter β) and its 90% confidence interval were obtained (see Table S5).
as §1
(§3) (1) For the hydrolysis process, an aliquot of 25 µL of rat/mouse plasma was transferred into an Eppendorf tube, and then 50 µL of enzyme digestion buffer and 25 µL of legumain enzyme were placed into the tube. The mixture was vortexed for 1 min, and then incubated in a water bath for 24 h at 37 °C for enzymatic hydrolysis. (2) For the protein precipitation process, 1000 µL of IS working solution (5 pmol/mL and 50 pmol/mL for rat and mouse plasmas, respectively) was added to the enzymatic-hydrolysis solution. Then, the sample was vortexed for 3 min and centrifuged at 22,000× g for 10 min at 4 °C. Analyses were performed on the 3 µL aliquot of the solution used in the UHPLC-MS/MS system.
(§4) Twenty-four rats, inclusive of both sexes, were randomly distributed into four groups. Groups 1, 2, and 3 were single-dose groups, among which the subjects received legubicin via tail intravenous injection (a dose of 1.5, 5, or 15 mg/kg; i.e., 1.36, 4.52, or 13.6 µmol/kg). The fourth group was utilized for a multi-dose study at 5 mg/kg (once-weekly for 4 consecutive weeks). Blood samples of approximately 150 µL were taken from the jugular vein at 0 h (pre-dosing) and at 0.167 h (10 min), 0.5 h, 1 h, 2 h, 4 h, 8 h, 24 h, 48 h, and 72 h post-dosing in the single-dose groups. Samples were also obtained on days 1 and 22 for the multiple-dose group in the same way as for the single-dose groups. However, on days 8 and 15, samples were taken only before and 10 min after administration. The K2EDTA quantities containing blood samples were centrifuged (4 °C, 4000 rpm, 10 min) to collect plasma samples, which were separated into EP tubes and kept at −80 °C until further assay.
as §2

[6] = Multiple-dose pharmacokinetic study of legubicin, weekly i.v. for 4 weeks; conditions: free metabolite in plasma, weekly i.v. legubicin 5 mg/kg; for Tmax: median [min, max]; for AUClast / Cmax: n = 3
Experimental: as §1, §3, §4, §2

[7] = high QC (Leu-DOX 4000, DOX 1200 pmol/mL, conjugate 80 nmol/mL)
[8] = high QC (nominal Leu-DOX 4000, DOX 1200 pmol/mL)
[9] = low QC (Leu-DOX 10, DOX 3 pmol/mL, conjugate 0.2 nmol/mL)
[10] = low QC (nominal Leu-DOX 10, DOX 3 pmol/mL)
[11] = i.v. 9.05 µmol/kg of the labelled drug, n = 6, UHPLC-MS/MS
[12] = high QC (Leu-DOX 2400, DOX 800 pmol/mL)
[13] = high QC (nominal Leu-DOX 2400, DOX 800 pmol/mL)
[14] = low QC (Leu-DOX 9, DOX 3 pmol/mL)
[15] = low QC (nominal Leu-DOX 9, DOX 3 pmol/mL)
[16] = high QC (Leu-DOX 2400, DOX 800 pmol/mL, conjugate 80 nmol/mL)
[17] = low QC (Leu-DOX 9, DOX 3 pmol/mL, conjugate 0.2 nmol/mL)
[18] = female SD rats, single i.v. legubicin 5 mg/kg
[19] = female SD rats, single i.v. legubicin 15 mg/kg
[20] = male SD rats, single i.v. legubicin 5 mg/kg
[21] = male SD rats, single i.v. legubicin 15 mg/kg
[22] = female SD rats, multiple dose (day 22)
[23] = female SD rats, single dose (day 1)
[24] = male SD rats, multiple dose (day 22)
[25] = male SD rats, single dose (day 1)

Freeze and thaw stability at -80 °C/ room temperature, Measured concentration ([1]; mouse liver homogenate, 3 cycles, low QC (nominal Leu-DOX 27, DOX 10 pmol/mL), n = 6, mean ± SD): 11.04 ± 0.68 pmol/mL | Short term stability at room temperature (6 h), Bias ([1]; mouse liver homogenate, low QC (Leu-DOX 27, DOX 10 pmol/mL), n = 6): 0.8% | Short term stability at room temperature (6 h), Measured concentration ([1]; mouse liver homogenate, low QC (nominal Leu-DOX 27, DOX 10 pmol/mL), n = 6, mean ± SD): 10.08 ± 0.52 pmol/mL | Auto-sampler stability at 2-8 °C, Measured concentration ([1]; processed mouse liver homogenate, 48h, low QC (nominal Leu-DOX 27, DOX 10 pmol/mL), n = 6, mean ± SD): 11.06 ± 0.81 pmol/mL | Auto-Sampler Stability at 2–8 °C (72 h), Bias [2, 7]: 1.0% | Auto-Sampler Stability at 2–8 °C (72 h), Measured Concentration [2, 8]: 1211.67 ± 104.58 nM | Auto-Sampler Stability at 2–8 °C (72 h), Bias [2, 9]: 4.4% | Auto-Sampler Stability at 2–8 °C (72 h), Measured Concentration [2, 10]: 3.13 ± 0.25 nM | Short-Term Stability at Room Temperature (4 h), Bias [2, 7]: 3.2% | Freeze and Thaw Stability at −80 °C/Room Temperature (3 Cycles), Bias [2, 7]: 1.8% | Long-Term Stability at −80 °C (70 days), Bias [2, 7]: −0.8% | Freeze and Thaw Stability at −80 °C/Room Temperature (3 Cycles), Measured Concentration [2, 8]: 1221.67 ± 97.45 pmol/mL | Long-Term Stability at −80 °C (70 days), Measured Concentration [2, 8]: 1190.00 ± 40.50 pmol/mL | Short-Term Stability at Room Temperature (4 h), Measured Concentration [2, 8]: 1238.33 ± 100.48 pmol/mL | Short-Term Stability at Room Temperature (4 h), Bias [2, 9]: 1.2% | Freeze and Thaw Stability at −80 °C/Room Temperature (3 Cycles), Bias [2, 9]: 0.4% | Long-Term Stability at −80 °C (70 days), Bias [2, 9]: −0.6% | Freeze and Thaw Stability at −80 °C/Room Temperature (3 Cycles), Measured Concentration [2, 10]: 3.01 ± 0.15 pmol/mL | Long-Term Stability at −80 °C (70 days), Measured Concentration [2, 10]: 2.98 ± 0.29 pmol/mL | Short-Term Stability at Room Temperature (4 h), Measured Concentration ([2]; low QC (nominal Leu-DOX 10, DOX 3 pmol/mL), UHPLC-MS/MS): 3.04 ± 0.18 pmol/mL | AUClast of doxorubicin in heart [3, 11]: 29.0 nmol·h/g | AUClast of doxorubicin in kidney [3, 11]: 83.5 nmol·h/g | AUClast of doxorubicin in plasma [3, 11]: 1.07 nmol·h/g | AUClast of doxorubicin in tumor [3, 11]: 63.1 nmol·h/g | order of exposure (Dox distribution) ([3]; after i.v. doxorubicin 9.05 µmol/kg, n = 6): kidney > tumor > heart > plasma | time of maximum concentration (Cmax) in all tissues ([3]; after i.v. doxorubicin 9.05 µmol/kg, initial sampling point): 4 h | Freeze and thaw stability at -80 °C/ room temperature, Bias [4, 12]: -7.0% | Freeze and thaw stability at -80 °C/ room temperature, Measured concentration [4, 13]: 744.33 ± 11.66 pmol/mL | Freeze and thaw stability at -80 °C/ room temperature, Bias [4, 14]: -8.6% | Freeze and thaw stability at -80 °C/ room temperature, Measured concentration [4, 15]: 2.74 ± 0.07 pmol/mL | Long term stability at -80 °C (30 days), Bias [4, 16]: 4.8% | Short term stability at room temperature (6 h), Bias [4, 16]: -9.3% | Long term stability at -80 °C (30 days), Measured concentration [4, 13]: 838.33 ± 13.81 pmol/mL | Short term stability at room temperature (6 h), Measured concentration [4, 13]: 728.83 ± 15.41 pmol/mL | Long term stability at -80 °C (30 days), Bias [4, 17]: -1.1% | Short term stability at room temperature (6 h), Bias [4, 17]: -9.4% | Long term stability at -80 °C (30 days), Measured concentration [4, 15]: 2.97 ± 0.23 pmol/mL | Short term stability at room temperature (6 h), Measured concentration [4, 15]: 2.72 ± 0.17 pmol/mL | Auto-sampler stability at 2-8 °C, Bias [4, 12]: -8.2% | Auto-sampler stability at 2-8 °C, Measured concentration [4, 13]: 734.00 ± 10.90 pmol/mL | Auto-sampler stability at 2-8 °C, Bias [4, 14]: -7.9% | Auto-sampler stability at 2-8 °C, Measured concentration [4, 15]: 2.76 ± 0.16 pmol/mL | AUClast [5, 18]: 0.1 ± 0.00538 µM·h | Cmax [5, 18]: 3.11 ± 0.615 nM | Tmax [5, 18]: 0.167 [0.167, 0.167] h | AUClast [5, 19]: 0.486 ± 0.0464 µM·h | Cmax [5, 19]: 20.5 ± 5.06 nM | Tmax [5, 19]: 0.167 [0.167, 0.167] h | AUClast [5, 20]: 0.173 ± 0.0243 µM·h | Cmax [5, 20]: 6.65 ± 1.30 nM | Tmax [5, 20]: 0.167 [0.167, 0.167] h | AUClast [5, 21]: 0.789 ± 0.0997 µM·h | Cmax [5, 21]: 44.2 ± 4.65 nM | Tmax [5, 21]: 0.167 [0.167, 0.167] h | Tmax [6, 22]: 0.167 [0.167, 0.167] h | AUClast [6, 22]: 0.174 ± 0.0367 µM·h | Cmax [6, 22]: 4.70 ± 0.534 nM | Tmax [6, 23]: 0.167 [0.167, 0.167] h | AUClast [6, 23]: 0.0945 ± 0.0447 µM·h | Cmax [6, 23]: 3.10 ± 0.367 nM | Tmax [6, 24]: 0.167 [0.167, 0.167] h | AUClast [6, 24]: 0.207 ± 0.0112 µM·h | Cmax [6, 24]: 8.58 ± 0.616 nM | Tmax [6, 25]: 0.167 [0.167, 0.167] h | AUClast [6, 25]: 0.123 ± 0.0441 µM·h | Cmax [6, 25]: 6.01 ± 0.430 nM
SMILES: COc1cccc2c1C(=O)c1c(O)c3c(c(O)c1C2=O)C[C@@](O)(C(=O)CO)C[C@@H]3O[C@H]1C[C@H](N)[C@H](O)[C@H](C)O1 [DOX, Doxorubicin]
brain penetration of the metabolite ([3]; after i.v. legubicin 9.05 µmol/kg): neither the metabolite doxorubicin nor free Leu-Dox permeated the brain | tissue concentration rank order of the metabolite ([3]; after i.v. legubicin 9.05 µmol/kg, n = 6): liver having the highest levels, followed by the tumor, skin, lung, gonads, spleen, kidney, stomach, small intestine, skeletal muscle, heart, and plasma
